Consider 23 molecules from PubChem BioAssay AID200 (DTP/NCI, 2004).

This experiment concerns B6C3F1 mice, B16 melanoma ip, median survival T/C. The experiment is described as follows: NCI In Vivo Anticancer Drug Screen. Data for tumor model B16 Melanoma (intraperitoneal) in B6C3F1 mice. Particulars: endpoint: median survival time, schedule: Q01DX009 (ip), higher = longer survival. Summed up:
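Values are T/C ratios: the measurement in treated animals divided by that in vehicle-treated controls, using survival or tumor size in mice carrying transplantable tumors.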

Where [1] appears, read: dose: 12.5 mg/kg/injection, vehicle: saline.
The mark [2] stands for this setting: dose: 25.0 mg/kg/injection, vehicle: saline.
Setting [3] is: dose: 50.0 mg/kg/injection, vehicle: saline.
Setting [4] is: dose: 100.0 mg/kg/injection, vehicle: saline.
[5] abbreviates: dose: 200.0 mg/kg/injection, vehicle: saline.
The mark [6] stands for this setting: dose: 400.0 mg/kg/injection, vehicle: saline.
Setting [7] is: dose: 50.0 mg/kg/injection, vehicle: saline with Tween-80.
The mark [8] stands for this setting: dose: 100.0 mg/kg/injection, vehicle: saline with Tween-80.
Setting [9] is: dose: 1.5 mg/kg/injection, vehicle: Klucel (hydroxypropylcellulose) (HPC).
Setting [10] is: dose: 3.0 mg/kg/injection, vehicle: Klucel (hydroxypropylcellulose) (HPC).
The mark [11] stands for this setting: dose: 12.5 mg/kg/injection, vehicle: saline with Tween-80.
[12] abbreviates: dose: 25.0 mg/kg/injection, vehicle: saline with Tween-80.
The mark [13] stands for this setting: dose: 200.0 mg/kg/injection, vehicle: saline with Tween-80.
Where [14] appears, read: dose: 400.0 mg/kg/injection, vehicle: saline with Tween-80.
[15] abbreviates: dose: 6.25 mg/kg/injection, vehicle: saline with Tween-80.

Several values for one entry are separate records, joined by “and”; a condition that tells them apart may be missing. Equal entries are not always repeated. Toxic doses and inconclusive results are not listed. Where a SMILES comes first, the peptide text is derived from it.

For the molecule `O=S(=O)(O)c1cc(N=C=S)ccc1/C=C/c1ccc(N=C=S)cc1S(=O)(=O)O`, the T/C was 96 % of control under setting [1], 95 % of control under setting [2], 91 % of control under setting [3] and 86 % of control under setting [4].

In the case of `CCCNc1ncnc2c1cnn2C`, the T/C under setting [1] was 91 % of control and the T/C under setting [2] is 93 % of control.

For `CSc1nc(N)nc2c1ncn2C1OC(CO)C(O)C1O` (configuration not stated), the T/C was 103 % of control under setting [2]; 123 % of control under setting [3]; 112 % of control under setting [4]; 97 % of control under setting [5]; 101 % of control under setting [6].

As for `CCC(C)c1cnc(CC(C)C)c(=O)n1O` (configuration not stated), the T/C under setting [7] was 98 % of control and the T/C under setting [8] is 87 % of control.

Consider `COC1CC2C=C(C)/C=C/C=C/C(=O)NC(c3ccccc3)C/C=C/CCC(O)CC(=O)C2=C1O` (configuration not stated), for which the T/C is, setting by setting: under setting [9], 108 % of control; under setting [10], 110 % of control and 119 % of control and 123 % of control; (dose: 3.13 mg/kg/injection, vehicle: Klucel (hydroxypropylcellulose) (HPC)) 104 % of control; (dose: 6.25 mg/kg/injection, vehicle: Klucel (hydroxypropylcellulose) (HPC)) 109 % of control.

As for `COC(=O)c1ccc(O)cc1`, the T/C is, setting by setting: under setting [11], 92 % of control; under setting [12], 103 % of control; under setting [7], 106 % of control; under setting [8], 117 % of control; under setting [13], 101 % of control; under setting [14], 96 % of control.

Turning to `CSCCC(NC(=O)CN)C(=O)O` (configuration not stated), the T/C reads like this: under setting [4], 87 % of control; under setting [5], 90 % of control; under setting [6], 91 % of control.

As for `Nc1nc(-c2ccc(Cl)cc2)c(Br)c(=O)[nH]1`, the T/C (dose: 13.0 mg/kg/injection, vehicle: saline with Tween-80) was 104 % of control; the T/C (dose: 26.0 mg/kg/injection, vehicle: saline with Tween-80) was 110 % of control; the T/C (dose: 52.0 mg/kg/injection, vehicle: saline with Tween-80) was 98 % of control; the T/C (dose: 104.0 mg/kg/injection, vehicle: saline with Tween-80) was 120 % of control.

Turning to `O=C(O[Si](Cc1ccccc1)(Cc1ccccc1)Cc1ccccc1)N(CCCl)CCCl`, the T/C is, setting by setting: (dose: 6.0 mg/kg/injection, vehicle: saline with Tween-80) 103 % of control; under setting [11], 108 % of control; under setting [12], 101 % of control and 106 % of control; under setting [7], 113 % of control and 106 % of control.

Turning to `O=C1c2ccc(Br)cc2-c2cc(Br)ccc21`, the T/C was 98 % of control under setting [15], 98 % of control under setting [11] and 93 % of control under setting [12].

As to `NCCCN=c1ccc2c3c1c(O)c1c(O)ccc(=O)c1c3[nH]n2CCNCCO`, the T/C by setting is: (dose: 2.0 mg/kg/injection, vehicle: water) 188 % of control; (dose: 4.0 mg/kg/injection, vehicle: water) 263 % of control; (dose: 8.0 mg/kg/injection, vehicle: water) 165 % of control.

For the molecule `O=C(O)CNC(=O)CNC(=O)C(Cc1cnc[nH]1)NC(=O)OCc1ccccc1` (configuration not stated) (HELM PEPTIDE1{[O=C(OCc1ccccc1)[*:2]].[O=C(C(Cc1c[nH]cn1)N[*:1])[*:2]].G.G}$$$$V2.0), the T/C runs as follows: under setting [8], 89 % of control; under setting [13], 91 % of control; under setting [14], 97 % of control.

As for `CCOC(=O)c1ccc(NC(=O)Nc2nc(C)cs2)cc1`, the T/C by setting is: (dose: 12.5 mg/kg/injection, vehicle: distilled water + Tween-80) 120 % of control; (dose: 25.0 mg/kg/injection, vehicle: distilled water + Tween-80) 120 % of control.

Regarding `Cc1ccc(C(=O)NC2C(=O)NC(C(C)C)C(=O)N3CCCC3C(=O)N(C)CC(=O)N(C)C(C(C)C)C(=O)OC2C)c2c1Oc1c(c(C(=O)NC3C(=O)NC(C(C)C)C(=O)N4CCCC4C(=O)N(C)CC(=O)N(C)C(C(C)C)C(=O)OC3C)c3nc(-c4ccccc4)c(=O)oc3c1C)N2` (configuration not stated), the T/C (dose: 0.5 mg/kg/injection, vehicle: water) was 157 % of control.

Consider `CCC(C)Nc1ccc(N)cc1` (configuration not stated), for which the T/C (dose: 0.09 mg/kg/injection, vehicle: saline + Tween-80 + alcohol) is 98 % of control; the T/C (dose: 0.18 mg/kg/injection, vehicle: saline + Tween-80 + alcohol) is 94 % of control; the T/C (dose: 0.37 mg/kg/injection, vehicle: saline + Tween-80 + alcohol) was 109 % of control; the T/C (dose: 0.75 mg/kg/injection, vehicle: saline + Tween-80 + alcohol) was 109 % of control; the T/C under setting [9] was 91 % of control; the T/C (dose: 1.5 mg/kg/injection, vehicle: saline + Tween-80 + alcohol) was 113 % of control. Besides, the T/C is 111 % of control under setting [10]; 97 % of control (dose: 3.0 mg/kg/injection, vehicle: saline + Tween-80 + alcohol); 96 % of control (dose: 6.0 mg/kg/injection, vehicle: Klucel (hydroxypropylcellulose) (HPC)); 89 % of control (dose: 12.0 mg/kg/injection, vehicle: Klucel (hydroxypropylcellulose) (HPC)).

With `COc1ccc2c(c1)/C(=C/CCN(C)C)c1ccccc1S2`, the T/C is, setting by setting: under setting [1], 101 % of control; under setting [2], 101 % of control; under setting [3], 101 % of control.

For `O=C(Nc1ccccc1C(=O)O)c1cc([N+](=O)[O-])cc([N+](=O)[O-])c1`, the T/C is 92 % of control under setting [11], 100 % of control under setting [12], 97 % of control under setting [7] and 96 % of control under setting [8].

For the molecule `CN(C)C1C(=O)C(C(=O)NP(=O)(NCCCO)N(CCCl)CCCl)=C(O)C2(O)C(=O)C3=C(O)c4c(O)cccc4C(C)(O)C3CC12` (configuration not stated), the T/C runs as follows: (dose: 12.0 mg/kg/injection, vehicle: saline with Tween-80) 105 % of control; under setting [12], 103 % of control and 107 % of control; under setting [7], 118 % of control and 102 % of control; under setting [8], 121 % of control; under setting [13], 195 % of control and 219 % of control.

With `O=C1CCCCC1C(=O)C(F)(F)F` (configuration not stated), the T/C by setting is: (dose: 4.5 mg/kg/injection, vehicle: saline + Tween-80 + alcohol) 103 % of control; (dose: 9.0 mg/kg/injection, vehicle: saline + Tween-80 + alcohol) 93 % of control; (dose: 18.0 mg/kg/injection, vehicle: saline + Tween-80 + alcohol) 87 % of control; (dose: 50.0 mg/kg/injection, vehicle: saline + Tween-80 + alcohol) 102 % of control.

Consider `COc1ccc(S(=O)(=O)N/N=C/C(=O)O)cc1`, for which the T/C runs as follows: under setting [15], 101 % of control and 104 % of control; under setting [11], 116 % of control and 120 % of control; under setting [7], 119 % of control.

Take `CSCCC(NC(=O)c1ccccc1)C(=O)O` (configuration not stated): the T/C under setting [4] is 93 % of control.

In the case of `[N-]=[N+]=CC(=O)CCC(NC(=O)OCc1ccccc1)C(=O)OCc1ccccc1` (configuration not stated), the T/C was 93 % of control (dose: 25.0 mg/kg/injection, vehicle: Klucel (hydroxypropylcellulose) (HPC)) and 96 % of control (dose: 50.0 mg/kg/injection, vehicle: Klucel (hydroxypropylcellulose) (HPC)).

Regarding `COC1=CC(=O)c2c(O)cc(OC)c(O)c2C1=O`, the T/C by setting is: (dose: 1.25 mg/kg/injection, vehicle: saline with Tween-80) 105 % of control; (dose: 2.5 mg/kg/injection, vehicle: saline with Tween-80) 121 % of control; (dose: 5.0 mg/kg/injection, vehicle: saline with Tween-80) 121 % of control; (dose: 10.0 mg/kg/injection, vehicle: saline with Tween-80) 121 % of control.
